{"source": "patent US20230190854A1", "about": "“METHOD OF REDUCING MUSCLE DAMAGE ASSOCIATED WITH INTENSIVE EXERCISE BY ADMINISTERING PURPLE-TEA EXTRACT” (ORYZA OIL & FAT CHEMICAL CO., LTD., priority 2020, published 2023)", "test_system": "Human umbilical vein endothelial cells (HUVEC)", "assay": "Evaluation of NO-production-promoting activity (NO2/NO3 Assay Kit-FX)", "assay_type": "cell-based", "settings": "24 hours, sample solution 10 to 1000 μg/mL in medium containing 1% DMSO, culture supernatant", "experimental": "The purple-tea sample and the GHG sample obtained in the above example were dissolved in a medium containing 1% DMSO (concentration: 10 to 1000 μg/mL) to prepare a sample solution. A medium containing 1% DMSO was used for a control.\nHuman umbilical vein endothelial cells (HUVEC) (6.2×10^4 cells/500 μL) were seeded in 24-well plates, pre cultured for 1 day, then the medium was changed (450 μl). After that, a sample solution of 50 μL was added to each well to react for 24 hours. After the reaction, the culture supernatant was subjected to a measurement of a NO-production amount. For the measurement of the NO-production amount, “NO2/NO3 Assay Kit-FX” (trade name, manufactured by Dojindo Molecular Technologies, Inc.) was used. The results are shown in FIG. 2 (purple-tea extract) and FIG. 3 (GHG).\nThe NO2/NO3 Assay Kit-FX is a kit used for indirectly measuring NO in a sample by the fluorescence method, using the reaction between NO2^− and DAN (2,3-Diaminonaphthalene)."}
{"smiles": "O=C(OC1OC2COC(=O)c3cc(O)c(O)c(O)c3-c3c(cc(O)c(O)c3O)C(=O)OC2C(O)C1OC(=O)c1cc(O)c(O)c(O)c1)c1cc(O)c(O)c(O)c1", "note": "[GHG, 1,2-di-O-galloyl-4,6-O-(S)-hexahydroxydiphenoyl-β-D-glucose]", "values": [{"measurement": "NO-production promoting effect (NO2−, NO3− and NO total production)", "result": "has a NO3− and a NO-total production-promoting effect"}]}
